Experimental findings from ChEMBL document CHEMBL1134555 (J Med Chem, 2001) are described below.

The structures appear in SMILES notation. pKi: −log10 of the molar value.

Chain of Nitric oxide synthase 1 (P29476 whole entry): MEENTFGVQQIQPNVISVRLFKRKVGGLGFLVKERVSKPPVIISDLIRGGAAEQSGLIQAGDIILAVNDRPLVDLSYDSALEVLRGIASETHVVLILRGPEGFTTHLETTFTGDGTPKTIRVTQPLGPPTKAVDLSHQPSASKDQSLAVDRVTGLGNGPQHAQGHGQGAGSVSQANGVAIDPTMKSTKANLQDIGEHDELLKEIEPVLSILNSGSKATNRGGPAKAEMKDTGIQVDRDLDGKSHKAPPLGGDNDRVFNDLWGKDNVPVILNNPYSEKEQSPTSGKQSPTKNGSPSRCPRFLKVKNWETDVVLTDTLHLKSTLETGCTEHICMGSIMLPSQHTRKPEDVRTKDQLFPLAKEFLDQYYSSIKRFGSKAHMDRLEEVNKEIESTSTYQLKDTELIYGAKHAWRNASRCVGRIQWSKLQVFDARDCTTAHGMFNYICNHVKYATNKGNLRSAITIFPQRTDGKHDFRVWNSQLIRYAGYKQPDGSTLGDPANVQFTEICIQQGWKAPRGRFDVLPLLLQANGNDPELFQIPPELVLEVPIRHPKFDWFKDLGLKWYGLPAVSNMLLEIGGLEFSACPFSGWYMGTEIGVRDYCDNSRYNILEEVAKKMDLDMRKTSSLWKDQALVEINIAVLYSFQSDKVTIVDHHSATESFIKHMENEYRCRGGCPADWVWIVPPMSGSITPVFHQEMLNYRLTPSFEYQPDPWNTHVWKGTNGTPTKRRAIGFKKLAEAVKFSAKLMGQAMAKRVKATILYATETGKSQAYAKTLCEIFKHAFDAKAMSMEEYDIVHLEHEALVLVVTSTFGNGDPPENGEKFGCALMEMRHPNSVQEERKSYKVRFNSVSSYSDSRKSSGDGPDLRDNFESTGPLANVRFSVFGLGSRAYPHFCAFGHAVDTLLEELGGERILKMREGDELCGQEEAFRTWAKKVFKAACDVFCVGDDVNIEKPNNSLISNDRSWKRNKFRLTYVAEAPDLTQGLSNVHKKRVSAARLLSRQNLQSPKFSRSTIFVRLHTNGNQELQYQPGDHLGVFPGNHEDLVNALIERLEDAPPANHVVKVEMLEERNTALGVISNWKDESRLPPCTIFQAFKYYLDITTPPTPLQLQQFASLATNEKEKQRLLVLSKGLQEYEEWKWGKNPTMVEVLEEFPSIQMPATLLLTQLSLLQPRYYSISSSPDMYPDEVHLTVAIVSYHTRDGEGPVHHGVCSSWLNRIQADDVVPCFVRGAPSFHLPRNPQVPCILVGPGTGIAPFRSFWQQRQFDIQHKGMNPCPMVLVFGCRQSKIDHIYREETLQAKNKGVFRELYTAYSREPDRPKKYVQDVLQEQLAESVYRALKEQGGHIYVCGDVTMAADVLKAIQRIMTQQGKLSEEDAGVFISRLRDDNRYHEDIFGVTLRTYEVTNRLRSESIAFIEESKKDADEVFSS

This experiment has as its target Nitric oxide synthase 1 (Rattus norvegicus, UniProt P29476). In words: Inhibitory activity against recombinant rat nNOS.
As for `N=C(NCCC[C@H](N)C(=O)NCCN)N[N+](=O)[O-]`, the pKi (in general, the negative decadic logarithm of the Ki, by convention in mol/L) was 6.27.
To `N=C(NCCC[C@H](N)C(=O)NCCCN)N[N+](=O)[O-]` belongs 6.34; to `N=C(NCCC[C@H](N)C(=O)NCCCCN)N[N+](=O)[O-]`, 6.46.
